Source: PubChem BioAssay (NCI)
Converted amounts (≈) assume the structure as drawn.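 These data come from cells grown in 96-well plates and exposed to compound for 48 hours at five concentrations. GI50 is the concentration that inhibits growth by half. TGI: total growth inhibition.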 Where a SMILES comes first, the peptide text is derived from it.

Experiments:
Test in all cases: NCI-60 cell line screen, 48 h
[1] = test system: TK-10 renal
[2] = test system: IGROV1 ovarian
[3] = test system: A498 renal
[4] = test system: SK-MEL-28 melanoma
[5] = test system: MDA-MB-231 breast
[6] = test system: SF-295 CNS
[7] = test system: DU-145 prostate
[8] = test system: M14 melanoma
[9] = test system: HOP-92 NSCLC
[10] = test system: SNB-75 CNS
[11] = test system: COLO 205 colon
[12] = test system: CAKI-1 renal
[13] = test system: OVCAR-8 ovarian
[14] = test system: HOP-62 NSCLC
[15] = test system: HL-60(TB) leukemia
[16] = test system: HT29 colon
[17] = test system: SN12C renal
[18] = test system: NCI-H226 lung
[19] = test system: HCC-2998 colon
[20] = test system: RPMI-8226 leukemia
[21] = test system: MOLT-4 leukemia
[22] = test system: EKVX NSCLC
[23] = test system: SK-MEL-2 melanoma
[24] = test system: A549 NSCLC
[25] = test system: HS 578T breast
[26] = test system: SNB-19 CNS
[27] = test system: OVCAR-4 ovarian
[28] = test system: MALME-3M melanoma
[29] = test system: K-562 leukemia
[30] = test system: CCRF-CEM leukemia
[31] = test system: SF-539 CNS
[32] = test system: MDA-MB-435
[33] = test system: SW-620 colon
[34] = test system: SF-268 CNS
[35] = test system: NCI-H23 lung
[36] = test system: NCI/ADR-RES ovarian
[37] = test system: T-47D breast
[38] = test system: NCI-H460 lung
[39] = test system: PC-3 prostate
[40] = test system: SK-MEL-5 melanoma
[41] = test system: UACC-257 melanoma
[42] = test system: UACC-62 melanoma
[43] = test system: NCI-H522 lung
[44] = test system: HCT-116 colon
[45] = test system: OVCAR-5 ovarian
[46] = test system: SR leukemia
[47] = test system: HCT-15 colon

## C/C(=C\c1ccc2c(c1)OCO2)[N+](=O)[O-]
[1]
  TGI: 8.63 µM
[2]
  TGI: 5.89 µM
[3]
  TGI: 24.3 µM
[4]
  TGI: 6.02 µM
[5]
  TGI: > 100 µM
[6]
  TGI: 6.27 µM
[7]
  TGI: 8.05 µM
[8]
  TGI: 42.5 µM
[9]
  TGI: 5.53 µM
[10]
  TGI: 88.2 µM
[11]
  TGI: 4.2 µM
[12]
  TGI: 4.41 µM
[13]
  TGI: 5.79 µM
[14]
  TGI: > 100 µM
[15]
  TGI: 5.73 µM
[16]
  TGI: 7.21 µM
[17]
  TGI: 15.9 µM
[18]
  TGI: 28.6 µM
[19]
  TGI: 7.34 µM
[20]
  TGI: > 100 µM
[21]
  TGI: 1.13 µM
[22]
  TGI: 16.4 µM
[23]
  TGI: 5.49 µM
[24]
  TGI: > 100 µM
[25]
  TGI: 45.8 µM
[26]
  TGI: 6.98 µM
[27]
  TGI: 14 µM
[28]
  TGI: 5.68 µM
[29]
  TGI: > 100 µM
[30]
  TGI: > 100 µM
[31]
  TGI: 9.24 µM
[32]
  TGI: 5.34 µM
[33]
  TGI: > 100 µM
[34]
  TGI: 10.7 µM
[35]
  TGI: 7.54 µM
[36]
  TGI: 37.9 µM
[37]
  TGI: 5.14 µM
[38]
  TGI: > 100 µM
[39]
  TGI: 5.9 µM
[40]
  TGI: 3.93 µM
[41]
  TGI: 5.54 µM
[42]
  TGI: 4.83 µM
[43]
  TGI: 3.21 µM
[44]
  TGI: > 100 µM
[45]
  TGI: 15.1 µM
[46]
  TGI: 2.39 µM
[47]
  TGI: 5.21 µM

## CC(=O)NC(C(=O)N1CCCC1C(=O)O)C(C)C (stereo not drawn) (Ac-Val-Pro-OH; configuration not given here)
[10]
  GI50: 0.032 µg/mL (≈ 0.125 µM)
  TGI: 66.7 µg/mL
[42]
  GI50: 22.4 µg/mL (≈ 87.5 µM)
  TGI: 72.4 µg/mL
